Test results reported in patent publication US4880809A, “1,4-disubstituted piperazines (or homopiperazines) as platelet-activating factor antagonists” (Takeda Chemical Industries, Ltd., priority 1987, dated 1989).

Experiments:
[1] = system: PAF-Induced Platelet Aggregation; assay: Inhibitory Action on PAF-Induced Platelet Aggregation; assay type: cell-based, New Zealand white male rabbits; conditions: Oryctolagus cuniculus, Drug Concentration: 3 × 10^-5 M, rabbit PRP
Protocol: Blood was collected from the hearts of conscious New Zealand white male rabbits weighing 2 to 3 kg using citric acid as an anticoagulant (one volume part of 3.15% citric acid per 9 volume parts of the whole blood). The blood was subjected to a centrifuge at 800 rpm for ten minutes to obtain platelet rich plasma (PRP). The remaining blood after collecting the PRP was subjected to a centrifuge at 3000 rpm for ten minutes to obtain platelet poor plasma (PPP). PRP was diluted with PPP, and the number of platelets was adjusted to 500,000/μl. Platelet aggregation was examined by means of turbidimetry [Born, Nature, 194, 927-929 (1962)] with 8 channel aggregometer (NBS HEMA TRACER 6 Nikoh, Bioscience, Japan). More concretely, PRP (250 μl) was kept warm (37° C.) for three minutes in a silicon-processed cuvette, to which was added a test sample (25 μl) dissolved in a physiological saline or in 10mM dimethylsulfoxide followed by dilution with a physiological saline. Two minutes later, PAF (25 μl, 3×10^-9 -1×10^-8 M), dissolved in a physiological saline, was added and then the maximum aggregation rate was determined. As the control, physiological saline without test sample was added to the cuvette, and the inhibitory rate thereon was determined.

PAF-Induced Hypotension = assay: Inhibitory Action on PAF-Induced Hypotension; assay type: in vivo, SD (Jcl) male rats; conditions: po, 30 mg/kg p.o., rat
Protocol: SD (Jcl) male rats of 6 to 8 week old were subjected to the experiment. After fasting overnight, the rats were cannulated into the femoral artery and vein under anesthesia with pentobarbital. A transducer (MPU-0.5-290O-III, TOYO BALDWIN, Japan) was connected with the artery cannula, and blood pressure was continuously measured. […] The rate of inhibition of lowering of blood pressure after administration of the test samples against the control was evaluated.

ET-induced hypotension = assay: Anti-Endotoxin Shock Activity in Rats: ET-induced hypotension; assay type: in vivo, Jcl: SD male rats; conditions: for Blood Pressure: 30 mg/kg p.o. one hour before ET, n = 5
Protocol: (§1) In a manner similar to that described in Test Example 2, Jcl: SD male rats (200 to 250 g) were applied with cannulation for measurement of blood pressure and for injecting PAF. The test animals were fasted overnight, and the experiments were conducted. The cannula on the side of femoral artery was connected with a pressure transducer and secured. The, endotoxin (ET) (50 mg/kg) was given through the cannula on the side of femoral vein at a rate of 1 ml/kg. While measuring blood pressure continuously, time until death was measured. Test drugs (30 mg/kg) were suspended in gum arabic and water, which were orally administered (5 ml/kg) to test animals one hour before the injection of ET. The animals in the control group were administered with a suspension of gum arabic in water.

ET-induced death = assay: Anti-Endotoxin Shock Activity in Rats: ET-induced death; assay type: in vivo, Jcl: SD male rats; conditions: for Number of survivals: 30 mg/kg p.o. one hour before ET, n = 5
Protocol: as §1

[2] = system: reversed passive Arthus reaction; assay: Inhibitory Action Against Reversed Passive Arthus Reaction; assay type: in vivo, Jcl SD male rats; conditions: p.o. (n = 6)
Protocol: This reaction was conducted, in accordance with the method reported by Chang and Otterness [Eur. J. Pharmacol., 69, 155 (1981)], by using rabbit anti-egg albumin (EA) antiserum. Jcl SD male rats (7 wk) were used. Under ether anesthesia, the hair of the back was cut and 1 ml of a 0.5% solution of EA in physiological saline was injected into the tail vein, followed by intracutaneous injection of 0.1 ml each of the left- and right-hand sides of the back. Vascular permeability was measured as follows. Three hours later, 1 ml of physiological saline containing 1% of Evans blue was given intravenously, and 30 minutes later, the animals were sacrificed by bleeding and the skin excised, and the area of wheals stained with a leakage of the dye (major axis x minor axis, mm^2). The test compounds were suspended in a 5% gum arabic solution, which was administered orally one hour before administration of the antigen.

diabetic nephropathy = assay: Action Against Diabetic Nephropathy; assay type: in vivo, Female KKAy mice; conditions: for albumin (%) excreted in urine / Amount of albumin excreted in urine / Amount of glucose in plasma / Amount of triglyceride in plasma / Total amount of protein in urine: 3 weeks, N 8; for albumin (%) excreted in urine: in parentheses; for Amount of albumin excreted in urine / Amount of glucose in plasma / Amount of triglyceride in plasma / Total amount of protein in urine: means ±SE
Protocol: Female KKAy mice of 10 weeks old were employed. Test animals were administered with the compound of Example 62 for three weeks at doses of 8 and 26 mg/kg/day in admixture with feedstuff. Then, urine was collected from these animals for 24 hours. Urine desalted (filtered urine) by means of a PD-10 column (Pharmacia) was employed to determine the total protein concentration in the urine by using a protein-assay kit (Bio-Rad). The amount ot albumin in the urine was calculated from the relative concentration of albumin to the total protein determined by means of electrophoresis.
Glucose and triglyceride in the plasma were determined by an enzyme method using the Ankol Chemistry System (Baker instruments).

cerebral infarction [3] = assay: Action Against Experimental Cerebral Infarction in Mongolian Gerbils (stroke index); assay type: in vivo; conditions: 30 mg/kg, p.o., N = 5
Protocol: (§2) Male 10 weeks old Mongolian gerbils were anesthetized with ether. The common carotid artery on both sides was exposed surgically. After waking, the artery was ligated with steel clips for 15 minutes. Then, the clips were removed and the blood was reperfused for three hours. Ataxia symptoms and manifestations of neuro-deficiency were assessed by the method using stroke index [C. P. McGraw: Arch. Neurol., 34, 334-336 (1977)] and inclined plane [A. S. Rivlin et al.: J. Neurosurg., 47, 577-581 (1977)]. The test compounds were orally administered one hour before ligation as a suspension in gum arabic. The control group was administered with the same volume of gum arabic. The number of animals subjected to this experiment was 5 each in both groups.

cerebral infarction [4] = assay: Action Against Experimental Cerebral Infarction in Mongolian Gerbils (inclined plane); assay type: in vivo; conditions: 30 mg/kg, p.o., n = 5
Protocol: as §2

Wistar-strain rats = assay: Toxicity Test; assay type: in vivo, Male Wistar-strain rats; conditions: 30, 100 and 300 mg/kg per day orally, two weeks
Protocol: Male Wistar-strain rats (5 wk) were used in groups of five individuals. The animals of the respective groups were orally administered with the compound of Example 62 at the dose of 30, 100 and 300 mg/kg per day over a period of two weeks as a suspension in gum arabic and water at a rate of 10 ml/kg. The animals of the control group were administered with a suspension of gum arabic in water. [Results]

[5] = 8 and 26 mg/kg/day, three weeks

Structure (SMILES): COc1cc2c(cc1OC)CCCC(C(=O)N1CCN(C(=O)c3cc(OC)c(OC)c(OC)c3)CC1)=C2 [Example 62, 1-(2,3-dimethoxy-6,7-dihydro-5H-benzocyclohepten-8-ylcarbonyl)-4-(3,4,5-trimethoxybenzoyl)piperazine]
- inhibition at 30 µM [1]: 100%
- inhibition in vivo at 30 mg/kg (PAF-Induced Hypotension; after 1 hr): 100%
- inhibition in vivo at 30 mg/kg (PAF-Induced Hypotension; after 2 hrs): 100%
- inhibition in vivo at 30 mg/kg (PAF-Induced Hypotension; after 4 hrs): 100%
- lowering of blood pressure due to ET (ET-induced hypotension; 30 mg/kg p.o.): suppressed significantly
- Blood Pressure (ET-induced hypotension; 0 min): 92 ± 2 mmHg
- Blood Pressure (ET-induced hypotension; 3 min): 82 ± 6 mmHg
- Blood Pressure (ET-induced hypotension; 5 min, **P < 0.01): 90 ± 4 mmHg
- Blood Pressure (ET-induced hypotension; 10 min, *P < 0.05): 90 ± 4 mmHg
- Blood Pressure (ET-induced hypotension; 15 min): 92 ± 3 mmHg
- Blood Pressure (ET-induced hypotension; 20 min): 95 ± 3 mmHg
- Number of survivals (ET-induced death; 0 hr): 5
- Number of survivals (ET-induced death; 1 hr): 5
- Number of survivals (ET-induced death; 2 hr): 5
- Number of survivals (ET-induced death; 3 hr): 5
- Number of survivals (ET-induced death; 4 hr): 4
- Number of survivals (ET-induced death; 5 hr): 2
- Number of survivals (ET-induced death; 6 hr): 1
- Number of survivals (ET-induced death; 7 hr): 1
- Number of survivals (ET-induced death; 8 hr): 1
- survival time (ET-induced death; 30 mg/kg p.o., control group 108±26 minutes, **): 320 ± 45 min
- Area of wheals stained with the dye ([2]; 3.1 mg/kg): 52.8 ± 2.7 mm^2
- Preventive effect of reversed passive Arthus reaction ([2]; 3.1 mg/kg): 5%
- Area of wheals stained with the dye ([2]; 12.5 mg/kg): 38.4 ± 6.1 mm^2
- Preventive effect of reversed passive Arthus reaction ([2]; 12.5 mg/kg): 31%
- Preventive effect of reversed passive Arthus reaction ([2]; 50 mg/kg): 70%
- Area of wheals stained with the dye ([2]; 50 mg/kg, **P < 0.01): 16.8 ± 5.1 mm^2
- albumin (%) excreted in urine (diabetic nephropathy; 8 mg/kg/day p.o.): 46%
- Amount of albumin excreted in urine (diabetic nephropathy; 8 mg/kg/day p.o.): 11.0 ± 2.0 mg/day
- Amount of glucose in plasma (diabetic nephropathy; 8 mg/kg/day p.o.): 326 ± 26 mg/dL
- Amount of triglyceride in plasma (diabetic nephropathy; 8 mg/kg/day p.o.): 499 ± 45 mg/dL
- Total amount of protein in urine (diabetic nephropathy; 8 mg/kg/day p.o.): 23.8 ± 2.9 mg/day
- suppression of excretion of albumin in urine (diabetic nephropathy; 26 mg/kg/day): significant
- albumin (%) excreted in urine (diabetic nephropathy; 26 mg/kg/day p.o.): 36%
- Amount of glucose in plasma (diabetic nephropathy; 26 mg/kg/day p.o.): 381 ± 33 mg/dL
- Amount of triglyceride in plasma (diabetic nephropathy; 26 mg/kg/day p.o.): 546 ± 43 mg/dL
- Total amount of protein in urine (diabetic nephropathy; 26 mg/kg/day p.o.): 22.0 ± 3.8 mg/day
- Amount of albumin excreted in urine (diabetic nephropathy; 26 mg/kg/day p.o., *p<0.05 vs control): 8.0 ± 0.7 mg/day
- excretion of albumin in urine (diabetic nephropathy; [5]): suppressed the excretion of albumin in urine dose-dependently
- plasma glucose (diabetic nephropathy; [5]): No change
- plasma triglyceride (diabetic nephropathy; [5]): No change
- total protein in urine (diabetic nephropathy; high dose): showed a tendency of being suppressed in a high dose
- Stroke index (cerebral infarction [3]; 15 min after reperfusion, **P < 0.01): 4.2 ± 0.6
- Stroke index (cerebral infarction [3]; 30 min after reperfusion, **P < 0.01): 3.4 ± 0.5
- Stroke index (cerebral infarction [3]; 60 min after reperfusion, **P < 0.01): 3.2 ± 0.5
- Stroke index (cerebral infarction [3]; 120 min after reperfusion, **P < 0.01): 2.0 ± 0
- Stroke index (cerebral infarction [3]; 180 min after reperfusion, **P < 0.01): 0.8 ± 0.5
- Stroke index (cerebral infarction [3]; ligation time 0 min): 0
- Stroke index (cerebral infarction [3]; ligation time 15 min, *P < 0.05): 14.0 ± 1.0
- Angle of inclined plane where test animals tumble down the ramp (cerebral infarction [4]; 15 min after reperfusion): 34 ± 3 °
- Angle of inclined plane where test animals tumble down the ramp (cerebral infarction [4]; 30 min after reperfusion): 35 ± 3 °
- Angle of inclined plane where test animals tumble down the ramp (cerebral infarction [4]; 60 min after reperfusion, *P < 0.05): 35 ± 2 °
- Angle of inclined plane where test animals tumble down the ramp (cerebral infarction [4]; 120 min after reperfusion, *P < 0.05): 36 ± 2 °
- Angle of inclined plane where test animals tumble down the ramp (cerebral infarction [4]; 180 min after reperfusion): 38 ± 2 °
- Angle of inclined plane where test animals tumble down the ramp (cerebral infarction [4]; ligation time 0 min): 47 ± 1 °
- Angle of inclined plane where test animals tumble down the ramp (cerebral infarction [4]; ligation time 15 min): 20 ± 0 °
- body weight between the control group and the test group (Wistar-strain rats): No difference in body weight
- general behaviors (Wistar-strain rats): no change was observed in general behaviors
- internal organs under macroscopic observation (autopsy) (Wistar-strain rats): no abnormality in internal organs
